This test has as its system Omicron BA5.2 variant of SARS-CoV-2. In kind it is cell-based.

The structures appear in SMILES notation. Starred links: 1 amine or outer side, 2 acyl side, 3 side chain; linkers in the order of their positions; H or OH if unused. Non-standard residues stand in square brackets, D forms with d. Residues, ends and D or L forms follow the SMILES beside them. ξ: configuration not given here. *: point of attachment. X1 = Cc1ccc(N[*:1])cc1C(=O)[*:2]; X2 = C[C@@H](N*)c1cccc2ccccc12; ξR = N=C(N)NCCCC(N)C(=O)O; ξL = CC(C)CC(N)C(=O)O; ξS = NC(CO)C(=O)O

`Cc1ccc(NC(=O)CNC(=O)CNC(=O)C(CCCNC(=N)N)NC(=O)C(CC(C)C)NC(=O)C(CCCNC(=N)N)NC(=O)C(N)CO)cc1C(=O)N[C@H](C)c1cccc2ccccc12` (stereo partly shown) [RG-17] (H-[ξS][ξR][ξL][ξR]GG[X1]-X2): the “IC50 for inhibition of replication of the SARS-CoV-2 genome (qPCR)” value is listed as “lower than GRL0617”.

Source of the values: US12220461B2, “Polypeptide-coupled small molecule compound and antiviral application thereof” (Guangzhou Medical University, priority 2023, dated 2025).
